ChEMBL document CHEMBL1201862, “PubChem BioAssay data set” (2004)
The source made the active and inactive calls.

Legend:
[1] = cells; type: functional, cell-based
[2] = cells; type: functional, cell-based; remark: listed apart in the source
[3] = microbe, parasite or virus in culture; type: functional; settings: Mycobacterium tuberculosis
[4] = target: Eukaryotic translation initiation factor 4E (Mus musculus, UniProt P63073); assay: blockers of eIF4G binding by eIF4E – biochemical, TR-FRET, dose response (AID 855); type: functional;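 note: potency for disrupting eIF4E binding to eIF4GI seen as loss of FRET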
[5] = target: Cytochrome P450 3A4 (Homo sapiens, UniProt P08684);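 note: CYP3A4 tested as one member of a cytochrome P450 panel screen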
[6] = target: Cytochrome P450 2C19 (Homo sapiens, UniProt P33261); assay: Cytochrome panel assay with activity outcomes. Panel member name: p450-cyp2c19 Compounds with AC50 equal or less than 10 uM are considered active; type: functional; settings: read-out: AC50
[7] = target: Cytochrome P450 2C9 (Homo sapiens, UniProt P11712)
[8] = target: T1, Cytochrome P450 1A2 (Homo sapiens, UniProt P05177);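 note: PubChem cytochrome P450 panel assay, CYP1A2 panel member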
T1 sequence (P05177 whole entry): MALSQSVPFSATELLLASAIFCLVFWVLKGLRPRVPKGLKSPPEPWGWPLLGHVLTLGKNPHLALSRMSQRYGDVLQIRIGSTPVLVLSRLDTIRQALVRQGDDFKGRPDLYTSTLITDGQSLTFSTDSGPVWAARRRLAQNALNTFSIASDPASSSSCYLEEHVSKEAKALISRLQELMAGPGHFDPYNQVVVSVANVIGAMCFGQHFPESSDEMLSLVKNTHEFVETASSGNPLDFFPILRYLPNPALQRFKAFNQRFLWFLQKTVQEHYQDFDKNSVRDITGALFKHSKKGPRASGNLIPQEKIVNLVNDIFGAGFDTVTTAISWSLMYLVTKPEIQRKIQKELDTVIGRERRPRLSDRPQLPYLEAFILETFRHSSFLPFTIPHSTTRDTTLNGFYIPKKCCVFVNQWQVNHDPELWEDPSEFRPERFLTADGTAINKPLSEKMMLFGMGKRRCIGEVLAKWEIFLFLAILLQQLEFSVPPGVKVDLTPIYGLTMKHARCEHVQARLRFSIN

[9] = viability loss in THP-1 monocytes – THP-1 cells, cytotoxicity control for Vif-APOBEC3G degradation inhibitor project, dose response (AID 1117359); type: functional; settings: THP-1
[10] = OVCAR8 cell viability loss – plate reader, dry powder samples, PAX8 project, dose response (AID 743197); type: functional, cell-based; settings: OVCAR-8
[11] = target: Paired box protein Pax-8 (Homo sapiens, UniProt Q06710); assay: PAX8 transcriptional activity inhibition in RMG-I – RMG-I cells, luciferase, cherry-pick, dose response (AID 687027); type: functional, cell-based;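 note: luciferase reporter driven by Pax8 target thyroperoxidase promoter measured by SteadyGlo luminescence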
[12] = IGROV1 cell killing – plate reader, dry powder samples, PAX8 inhibitor project, dose response (AID 743043); type: functional, cell-based; settings: IGROV-1
[13] = A Cell Based Secondary Assay To Explore Cytotoxicity of Compounds that Sensitize Mycobacterium Tuberculosis to Beta-Lactam Antibiotics.; type: functional
[14] = Dd2 malaria parasite growth inhibition potency – SYBR Green, dry powder samples, dose response (AID 1159566); type: functional, cell-based;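 note: potency for growth inhibition with lower SYBR green DNA signal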
[15] = growth inhibition of yeast DHODH-expressing 3D7 parasites – SYBR Green, dry powder samples, dose response (AID 1159570); type: functional, cell-based;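 note: parasite growth measured after 72 hours of compound exposure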
[16] = growth inhibition of PfATP4-mutant resistant parasites – NITD609-resistant line, SYBR Green, dry powder, dose response (AID 1159571); type: functional, cell-based;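 note: parasites synchronized at ring stage by sorbitol before testing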

Sequence of Cytochrome P450 3A4 (P08684 whole entry): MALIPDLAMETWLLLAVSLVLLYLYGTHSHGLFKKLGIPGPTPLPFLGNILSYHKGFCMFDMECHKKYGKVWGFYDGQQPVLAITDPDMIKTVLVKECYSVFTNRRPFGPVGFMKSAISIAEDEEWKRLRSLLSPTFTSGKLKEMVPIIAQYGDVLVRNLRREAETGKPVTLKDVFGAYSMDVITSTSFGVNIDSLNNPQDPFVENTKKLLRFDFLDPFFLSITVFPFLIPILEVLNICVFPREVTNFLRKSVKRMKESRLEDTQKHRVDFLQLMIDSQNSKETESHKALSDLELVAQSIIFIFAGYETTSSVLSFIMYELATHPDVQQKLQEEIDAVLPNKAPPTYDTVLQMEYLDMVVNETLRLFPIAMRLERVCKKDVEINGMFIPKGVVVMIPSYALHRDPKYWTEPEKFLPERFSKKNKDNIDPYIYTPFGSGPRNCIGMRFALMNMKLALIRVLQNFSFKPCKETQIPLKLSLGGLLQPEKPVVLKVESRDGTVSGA
Sequence of Cytochrome P450 2C9 (P11712 whole entry): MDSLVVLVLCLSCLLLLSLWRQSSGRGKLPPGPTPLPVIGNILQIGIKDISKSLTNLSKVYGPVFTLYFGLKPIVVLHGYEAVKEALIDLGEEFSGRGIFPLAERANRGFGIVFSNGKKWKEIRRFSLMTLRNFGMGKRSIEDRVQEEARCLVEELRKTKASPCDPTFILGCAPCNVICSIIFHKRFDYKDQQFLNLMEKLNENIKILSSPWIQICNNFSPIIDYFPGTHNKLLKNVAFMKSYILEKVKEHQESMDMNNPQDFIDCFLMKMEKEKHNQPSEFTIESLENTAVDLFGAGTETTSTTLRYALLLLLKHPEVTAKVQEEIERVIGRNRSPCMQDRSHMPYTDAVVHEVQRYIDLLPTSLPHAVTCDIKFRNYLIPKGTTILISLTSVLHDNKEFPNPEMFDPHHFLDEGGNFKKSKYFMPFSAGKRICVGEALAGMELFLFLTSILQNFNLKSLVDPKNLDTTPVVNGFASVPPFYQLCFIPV
Sequence of Eukaryotic translation initiation factor 4E (P63073 whole entry): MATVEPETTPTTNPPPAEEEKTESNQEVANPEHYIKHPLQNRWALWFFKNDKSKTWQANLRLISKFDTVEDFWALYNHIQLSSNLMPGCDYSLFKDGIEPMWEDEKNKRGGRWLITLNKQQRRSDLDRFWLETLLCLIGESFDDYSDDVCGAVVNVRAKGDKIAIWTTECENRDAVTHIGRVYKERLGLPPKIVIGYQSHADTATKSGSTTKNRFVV
Sequence of Paired box protein Pax-8 (Q06710 whole entry): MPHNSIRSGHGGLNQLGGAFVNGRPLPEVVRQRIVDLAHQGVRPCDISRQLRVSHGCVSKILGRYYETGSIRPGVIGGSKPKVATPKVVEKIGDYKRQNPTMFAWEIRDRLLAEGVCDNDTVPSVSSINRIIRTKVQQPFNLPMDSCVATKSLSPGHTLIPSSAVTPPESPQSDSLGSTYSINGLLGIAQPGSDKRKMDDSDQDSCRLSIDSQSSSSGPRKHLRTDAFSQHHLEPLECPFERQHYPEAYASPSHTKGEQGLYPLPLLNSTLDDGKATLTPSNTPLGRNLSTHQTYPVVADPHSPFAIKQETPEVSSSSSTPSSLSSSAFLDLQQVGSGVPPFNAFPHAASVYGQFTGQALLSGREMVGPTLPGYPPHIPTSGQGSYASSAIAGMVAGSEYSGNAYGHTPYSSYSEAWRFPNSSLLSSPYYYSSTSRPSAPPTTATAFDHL
Sequence of Cytochrome P450 2C19 (P33261 whole entry): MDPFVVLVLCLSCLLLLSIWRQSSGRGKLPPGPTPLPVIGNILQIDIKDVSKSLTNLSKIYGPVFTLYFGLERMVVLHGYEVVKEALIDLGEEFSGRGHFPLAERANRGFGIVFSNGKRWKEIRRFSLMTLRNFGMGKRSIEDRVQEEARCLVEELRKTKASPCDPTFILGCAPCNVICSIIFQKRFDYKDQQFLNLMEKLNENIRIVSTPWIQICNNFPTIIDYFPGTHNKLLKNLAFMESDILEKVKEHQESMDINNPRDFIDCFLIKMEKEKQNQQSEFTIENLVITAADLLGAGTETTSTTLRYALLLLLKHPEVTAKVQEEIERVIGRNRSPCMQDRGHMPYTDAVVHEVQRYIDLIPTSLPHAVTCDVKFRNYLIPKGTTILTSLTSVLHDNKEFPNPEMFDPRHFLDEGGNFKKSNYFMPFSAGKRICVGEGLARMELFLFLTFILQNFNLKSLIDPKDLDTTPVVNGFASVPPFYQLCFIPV

SMILES: COc1ccc(C(CC(=O)NCc2ccccc2)Sc2n[nH]c(-c3ccccc3)n2)cc1 (centres undefined)
- EC50 [1]: > 350 µM (not active)
- EC50 [2]: > 350 µM (not active)

SMILES: Clc1ccc2c(c1)C(c1ccccc1Cl)=NCc1nnc(N3CCN(CCOc4ccccc4)CC3)n1-2
- CC50 [3]: > 40 µM (active)

SMILES: Cc1ccc(Nc2nc(Oc3ccc(=O)[nH]n3)nc(N(C)C)n2)cc1
- IC50 [4]: > 64 µM (inactive)

SMILES: CC1(C2CC2)NC(=O)NC1=O (centres undefined)
- IC50 [4]: > 64 µM (inactive)

SMILES: COc1cccc(C(=O)/C=C2\Sc3ccccc3N2C)c1
- CC50 [3]: > 40 µM (active)

SMILES: COc1ccc(Oc2nc(C)cc(C)c2S(C)(=O)=O)cc1
- AC50 [5]: inconclusive
- AC50 [6]: 25.1 µM (inconclusive)
- AC50 [7]: 15.8 µM (inconclusive)
- AC50 [8]: 11.2 µM (inconclusive)

SMILES: CCC(CC)c1nnc(NC(=O)COc2ccc3c(C)cc(=O)oc3c2)s1
- AC50 [5]: inconclusive
- AC50 [7]: 7.08 µM (inconclusive)

SMILES: O=C(c1ccc(F)cc1)N1CCC(C(=O)N(Cc2ccccc2)c2ccccc2)CC1
- CC50 [9]: > 40 µM (active)

SMILES: C[C@@H]1CN([C@H](C)CO)C(=O)c2cc(NC(=O)Nc3ccc(F)cc3)ccc2O[C@@H](C)CCCCO[C@@H]1CN(C)Cc1ccc2c(c1)OCO2
- AC50 [10]: 58.6 µM (active)
- AC50 [11]: 10.9 µM (active)

SMILES: C[C@H]1CCCCO[C@H](CN(C)C(=O)Nc2cccc3ccccc23)[C@@H](C)CN([C@@H](C)CO)C(=O)c2cc(NS(=O)(=O)c3ccc(Cl)cc3)ccc2O1
- AC50 [10]: > 70 µM (inactive)
- AC50 [12]: 55.2 µM (active)
- AC50 [11]: 4.51 µM (active)

SMILES: O=C(Cc1cccc2ccccc12)N/N=C/c1ccc(OC(=O)/C=C/c2ccco2)cc1
- CC50 [13]: 31.2 µM (active)

SMILES: C/C(=N\O)C(=O)Nc1ccccc1
- EC50 [1]: > 350 µM (not active)
- EC50 [2]: > 350 µM (not active)

SMILES: C[C@H](CO)N1C[C@H](C)[C@@H](CN(C)CC2CCCC2)Oc2ncc(C#CCc3ccccc3)cc2C1=O
- AC50 [14]: 590 nM (active)
- AC50 [15]: 3.18 µM (active)
- AC50 [16]: 280 nM (active)
